Source: patent US4159328A, “Tetrahydro-1,3,5-thiadiazin-4-one derivative” (Nihon Nohyaku Co., Ltd., priority 1977, dated 1979)

How the values were obtained:
Assay type in all cases: in vivo
[1] = test system: larvae of brown planthopper (Nilaparvata lugens Stahl); test: Test Example 1: insecticidal activity against larvae of brown planthopper; conditions: third-instar larvae, 25° C.
Method in brief: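 Rice seedlings at 1.5-leaf stage were dipped for 30 s in a 400 ppm test composition, air-dried, and infested with third-instar N. lugens larvae. After holding at 25 °C, mortality was scored 5 or 7 days post-treatment from three replicates.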

[2] = test system: cirrus red mite (Panonychus citri McGregor); test: Test Example 4: activity to citrus red mite (Rothamstead method); parameters: concentration or dose not given beside the values; conditions: two days after treatment, 25° C.; 2880 min
Method: Activity to cirrus red mite (Panonychus citri McGregor).
Testing method: The test was performed by Rothamstead method. A test composition was sprayed by means of a spray gun over grapefruit leaves infested with citrus red mites. After air-drying the grapefruit was left standing in a constant temperature cabinet at 25° C. Two days after the treatment, the number of survived mites was counted to calculate the mortality.

[3] = test system: two-spotted spider mite (Tetranychus urticae Koch); test: Test Example 3: activity to two-spotted spider mite
Text: Activity to two-spotted spider mite (Tetranychus urticae Koch).
Testing method: Two-spotted spider mites were set free on the pot-planted soybean in a greenhouse. On the next day, a test composition of 1,000 ppm concentration was sprayed over the soybean by means of a spray gun. Two days or five days after the treatment, dead-and-survival was inspected to calculate the mortality.

[4] = test system: larvae of green rice leafhopper (Nephotettix cincticeps Uhler); test: Test Example 5: activity against larvae of green rice leafhopper; conditions: 168 h, 400 ppm, second-instar larvae, 25° C., seven days after treatment, read-out: Mortality
Method: Activity against larvae of green rice leafhopper (Nephotettix cincticeps Uhler).
Testing method: Five rice seedlings of the 1.5 leaf age were dipped in a test composition of 400 ppm concentration for 30 seconds. After air-drying, the seedlings were placed in a glass tube containing 1 ml of water and infested with five second-instar larvae of green rice leafhopper. The glass tube was left standing in a constant temperature cabinet at 25° C. Seven days after the treatment, dead-and-survivalwas inspected to calculate the mortality (3-replication test).

[5] = test system: larvae of white-backed planthopper (Sogatella furcifera Horvath); test: Test Example 2: insecticidal activity against larvae of white-backed planthopper; conditions: 168 h, 400 ppm, first-instar larvae, 25° C., seven days after treatment, read-out: Mortality
Method: Insecticidal activity against larvae of white-backed planthopper (Sogatella furcifera Horvath).
Testing method: Five rice seedlings of the 1.5 leaf age were dipped in a test composition of 400 ppm concentration for 30 seconds. After air-drying, the seedlings were placed in a glass tube containing 1 ml of water and infested with five first-instar larvae of white-backed planthopper. The glass tube was left standing in a constant temperature cabinet at 25° C. and seven days after the treatment, dead-and-survival was observed. Mortality was calculated from the results of 3-replication test.

[6] = test system: larvae of house mosquito (Culex pipiens pallens Coquillett); test: Test Example 6: insecticidal activity to larvae of house mosquito; conditions: 120 h
Method: Insecticidal activity to larvae of house mosquito (Culex pipiens pallens Coquillett).
Test method: In a 200-ml beaker, was placed together with a feed 100 ml of a test composition diluted with deionized water to 10 ppm concentration. The test composition was infested with 20 first-instar larvae of house mosquito and the beaker was covered with a sheet of Japanese paper. The beaker was kept in a constant temperature cabinet at 25° C. Five days after the treatment, the dead-and-survival was inspected to calculate the mortality.

[7] = test system: larvae of 28-spotted lady beetle (Epilachna vigintioctopunctana Fabricius); test: Test Example 8: insecticidal activity against larvae of 28-spotted lady beetle; conditions: 120 h
Method: Insecticidal activity against larvae of 28-spotted lady beetle (Epilachna vigintioctopunctana Fabricius).
Testing method: Leaflets of tomato grown in a greenhouse were dipped in a test composition of 100 ppm concentration for 30 seconds and after that the leaflets were dried by air. In a Petri dish covered on the bottom with a piece of filter paper, were introduced 1 ml of water and three treated tomato leaflets. After having been infested with seven second-instar larvae of 28-spotted lady beetle, the Petri dish was left standing in a constant temperature cabinet at 25° C. Five days after the treatment, the dead-and-survival was inspected to calculate the mortality (2-replication test).

[8] = 48 h, 1,000 ppm, 2 days after treatment
[9] = 120 h, 1,000 ppm, 5 days after treatment

Structure (SMILES) | mortality at 400 ppm ([1]; 168 h, 7 days after treatment) | Mortality [2] | mortality at 1000 ppm [3, 8] | mortality at 400 ppm [4] | mortality at 400 ppm [5] | mortality at 400 ppm ([1]; 5 or 7 days after treatment (No. 123 not covered by footnote)) | mortality at 400 ppm ([1]; 120 h, 5 days after treatment) | mortality at 10 ppm [6] | mortality at 1000 ppm [3, 9] | mortality at 100 ppm [7]
CC(C)N=C1SCN(C)C(=O)N1C(C)C [Compound 2, 2-Isopropylimino-3-isopropyl-5-methyl-tetrahydro-1,3,5-thiadiazin-4-one] | 100% | 50% | 100% | 50% | 100% | – | – | – | – | –
CCN1CSC(=NC(C)(C)C)N(C)C1=O [Compound 6] | 100% | 80% | 100% | 80% | 100% | – | – | – | – | –
CCN1CSC(=NC(C)C)N(C(C)C)C1=O [Compound 8] | 100% | 80% | 100% | 80% | 100% | – | – | – | – | –
C=CCN1CSC(=NC)N(C)C1=O [Compound 9] | 100% | 50% | 80% | 100% | 100% | – | – | – | – | –
C=CCN1CSC(=NC(C)C)N(C)C1=O [Compound 10] | 100% | 80% | 100% | 100% | 100% | – | – | – | – | –
CCCN1CSC(=NC(C)C)N(C(C)C)C1=O [Compound 14] | 80% | 50% | 100% | 100% | 100% | – | – | – | – | –
CN=C1SCN(C(C)C)C(=O)N1C [Compound 16] | 100% | 100% | 100% | 100% | 100% | – | – | – | – | –
CC(C)N=C1SCN(C(C)C)C(=O)N1C [Compound 18, 2-Isopropylimino-3-methyl-5-isopropyl-tetrahydro-1,3,5-thiadiazin-4-one] | 100% | 100% | 80% | 100% | 100% | – | – | – | – | –
CCN=C1SCN(C(C)C)C(=O)N1CC [Compound 23] | 100% | 80% | 100% | 80% | 100% | – | – | – | – | –
CCCCN1CSC(=NC(C)C)N(C)C1=O [Compound 25] | 100% | 80% | 100% | 100% | 100% | – | – | – | – | –
CC(C)CN1CSC(=NC(C)C)N(C(C)C)C1=O [Compound 27] | 100% | 100% | 80% | 80% | 100% | – | – | – | – | –
CCC(C)N1CSC(=NC(C)C)N(C)C1=O (stereo not drawn) [Compound 29] | 100% | 100% | 100% | 80% | 100% | – | – | – | – | –
CN=C1SCN(C(C)(C)C)C(=O)N1C [Compound 31, 2-Methylimino-3-methyl-5-t-butyl-tetrahydro-1,3,5-thiadiazin-4-one] | 80% | 100% | 100% | 50% | 100% | – | – | – | – | –
CCCN=C1SCN(C(C)(C)C)C(=O)N1C [Compound 32] | 100% | 100% | 100% | 50% | 100% | – | – | – | – | –
CC(C)N=C1SCN(C(C)(C)C)C(=O)N1C [Compound 33] | 100% | 100% | 100% | 100% | 100% | – | – | – | – | –
CCC(C)N=C1SCN(C(C)(C)C)C(=O)N1C (stereo not drawn) [Compound 35] | 100% | 100% | 100% | 50% | 100% | – | – | – | – | –
CN1C(=O)N(C(C)(C)C)CSC1=NC(C)(C)C [Compound 37] | 100% | 100% | 100% | 50% | 100% | – | – | – | – | –

Structure (SMILES) | mortality at 400 ppm ([1]; 168 h, 7 days after treatment) | Mortality [2] | mortality at 1000 ppm [3, 8] | mortality at 400 ppm [4] | mortality at 400 ppm [5] | mortality at 400 ppm ([1]; 5 or 7 days after treatment (No. 123 not covered by footnote)) | mortality at 400 ppm ([1]; 120 h, 5 days after treatment) | mortality at 10 ppm [6] | mortality at 1000 ppm [3, 9] | mortality at 100 ppm [7]
CCN1C(=O)N(C(C)(C)C)CSC1=NC(C)(C)C [Compound 42] | 100% | 100% | 100% | 80% | 100% | – | – | – | – | –
CC(C)N1C(=O)N(C(C)(C)C)CSC1=NC(C)(C)CC(C)(C)C [Compound 48] | 100% | 100% | 100% | 80% | 100% | – | – | – | – | –
CCCCCCN1CSC(=NC(C)C)N(C(C)C)C1=O [Compound 51] | 100% | 50% | 100% | 50% | 100% | – | – | – | – | –
CN=C1SCN(c2ccccc2)C(=O)N1C [Compound 115, 2-Methylimino-3-methyl-5-phenyl-tetrahydro-1,3,5-thiadiazin-4-one] | – | 100% | – | – | – | – | – | – | – | –
CN1C(=N)SCN(c2ccccc2)C1=O [Compound 123] | – | 100% | – | – | – | 100% | – | – | – | –
Cc1ccccc1N=C1SCN(c2ccccc2)C(=O)N1C [Compound 124, 2-(2-Methyl)phenylimino-3-methyl-5-phenyltetrahydro-1,3,5-thiadiazin-4-one] | – | 100% | – | – | – | – | – | – | – | –
CCCCCCN1C(=O)N(c2ccccc2)CSC1=NC(C)C [Compound 153] | – | 100% | – | 100% | – | – | – | – | – | –
CCCCCCCCN1C(=O)N(c2ccccc2)CSC1=NC(C)CC (stereo not drawn) [Compound 161] | – | 100% | – | – | – | – | – | – | – | –
CCCCCCN=C1SCN(c2ccc(F)cc2)C(=O)N1CCC [Compound 281] | – | 100% | – | – | – | – | – | – | – | –
Cc1ccccc1N1CSC(=NC(C)(C)C)N(C(C)C)C1=O [Compound 302] | – | – | – | 100% | 100% | – | 100% | 100% | 70% | 80%
CN=C1SCN(c2ccc(C)cc2)C(=O)N1C [Compound 309] | – | 100% | – | – | – | – | – | – | – | –
Cc1ccc(N2CSC(=NC(C)C)N(C)C2=O)cc1 [Compound 310] | – | 100% | – | – | – | – | – | 100% | – | –
CCC(C)N1C(=O)N(c2cccc(C)c2)CSC1=NC(C)(C)C (stereo not drawn) [Compound 328] | – | – | – | 100% | 100% | – | 90% | 100% | 100% | 100%
COc1ccc(N2CSC(=NC(C)(C)C)N(C(C)C)C2=O)cc1 [Compound 353, 2-t-Butylimino-3-isopropyl-5-(p-methoxyphenyl)tetrahydro-1,3,5-thiadiazin-4-one] | – | – | – | 100% | 100% | – | 100% | 100% | 100% | 100%
CCC(C)N1C(=O)N(c2ccc(OC)cc2)CSC1=NC(C)(C)C (stereo not drawn) [Compound 355, 2-t-butylimino-3-s-butyl-5-(p-methoxyphenyl)-tetrahydro-1,3,5-thiadiazin-4-one] | – | – | – | 100% | 100% | – | 100% | 90% | 100% | 100%
CCOc1ccc(N2CSC(=NC(C)(C)C)N(C(C)CC)C2=O)cc1 (stereo not drawn) [Compound 368, 2-t-Butylimino-3-s-butyl-5-(4-ethoxyphenyl)tetrahydro-1,3,5-thiadiazin-4-one] | – | 100% | – | – | – | – | 80% | – | 100% | –
